Source: patent US9663513B2, “Pyrimidine PDE10 inhibitors” (Merck Sharp & Dohme Corp., priority 2012, dated 2017)

Target: human PDE10A2 (Homo sapiens (Human), UniProt Q9Y233)
Test: PDE10 fluorescence polarization (IMAP FP) inhibition assay
Type: biochemical
Conditions: human PDE10A2 from transfected AD293 cells; FAM-labeled cAMP 50 nM; apparent inhibition constant; read-out: PDE10A Ki
Summary of the method: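 Cytoplasmic lysate of AD293 cells transiently expressing human PDE10A2 (enzyme level giving 20% conversion) incubated with 50 nM FAM-cAMP in pH 7.2 Tris/MgCl2 buffer, 30 min at room temperature. IMAP binding solution added, FP read after ≥1 h; 10-point 3-fold compound titrations fitted to a four-parameter equation.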

Sequence of human PDE10A2 (Q9Y233 267-1055): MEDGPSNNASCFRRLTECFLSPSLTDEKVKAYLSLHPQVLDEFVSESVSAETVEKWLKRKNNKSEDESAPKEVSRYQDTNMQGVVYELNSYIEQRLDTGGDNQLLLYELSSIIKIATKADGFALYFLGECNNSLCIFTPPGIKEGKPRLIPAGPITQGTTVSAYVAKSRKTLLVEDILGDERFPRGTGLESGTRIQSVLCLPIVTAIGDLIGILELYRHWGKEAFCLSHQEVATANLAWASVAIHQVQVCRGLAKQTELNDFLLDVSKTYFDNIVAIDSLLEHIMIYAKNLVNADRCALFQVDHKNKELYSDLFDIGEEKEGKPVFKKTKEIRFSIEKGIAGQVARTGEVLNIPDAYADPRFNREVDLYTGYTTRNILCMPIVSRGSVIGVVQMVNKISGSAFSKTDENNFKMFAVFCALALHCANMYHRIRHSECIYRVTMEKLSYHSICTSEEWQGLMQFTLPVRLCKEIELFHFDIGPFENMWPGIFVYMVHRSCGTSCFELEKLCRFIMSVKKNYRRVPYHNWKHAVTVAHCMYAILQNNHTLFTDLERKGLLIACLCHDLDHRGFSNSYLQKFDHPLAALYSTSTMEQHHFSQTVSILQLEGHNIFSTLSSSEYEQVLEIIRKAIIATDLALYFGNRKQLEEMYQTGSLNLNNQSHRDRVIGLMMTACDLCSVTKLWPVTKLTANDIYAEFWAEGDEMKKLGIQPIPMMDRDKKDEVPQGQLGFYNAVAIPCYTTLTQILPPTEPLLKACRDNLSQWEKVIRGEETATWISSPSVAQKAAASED

Structure (SMILES)	Ki
Cc1ccc([C@H]2C[C@@H]2COc2nc(C)ncc2-c2ccc(F)c(F)c2)nc1 [Example 15, 5-(3,4-difluorophenyl)-2-methyl-4-(((1S,2S)-2-(5-methylpyridin-2-yl)cyclopropyl)methoxy)pyrimidine]	1.11 nM
COc1ccc([C@H]2C[C@@H]2COc2nc(C)ncc2-c2nnn(C(F)F)n2)nc1 [Example 237, 5-(2-(difluoromethyl)-2H-tetrazol-5-yl)-4-(((1S,2S)-2-(5-methoxypyridin-2-yl)cyclopropyl)methoxy)-2-methylpyrimidine]	32.9 nM
COc1ccc(-c2cnc(C)nc2OC[C@H]2C[C@@H]2c2ccc3ccccc3n2)cc1 (single isomer, unassigned) [Example 29]	1.66 nM
Cc1ccc([C@H]2C[C@@H]2COc2nc(C)ncc2C2CCC(=O)CC2)nc1 [Example 185, 4-(2-methyl-4-(((1S,2S)-2-(5-methylpyridin-2-yl)cyclopropyl)methoxy)pyrimidin-5-yl)cyclohexanone]	3.73 nM
Cc1ncc(-c2cccn3ccnc23)c(OC[C@H]2C[C@@H]2c2ccc3ccccc3n2)n1 [Example 134, 2-((1S,2S)-2-((5-(imidazo[1,2-a]pyridin-8-yl)-2-methylpyrimidin-4-yloxy)methyl)cyclopropyl)quinoline]	4.03 nM
Cc1ncc(-c2ccc(C(C)(C)O)nc2)c(OC[C@H]2C[C@@H]2c2ncccc2C)n1 (single isomer, unassigned) [Example 174]	8.42 nM
Cc1ncc(-c2ccc(C(C)O)cc2)c(OC[C@H]2C[C@@H]2c2ccc3ccccc3n2)n1 (single isomer, unassigned) [Example 35]	1.05 nM
Cc1ccc([C@H]2C[C@@H]2COc2nc(C)ncc2-c2cnc(C(C)(C)O)cc2C)nc1 [Example 45, 2-(4-Methyl-5-(2-methyl-4-(((1S,2S)-2-(5-methylpyridin-2-yl)cyclopropyl)methoxy)pyrimidin-5-yl)pyridin-2-yl)propan-2-ol]	0.02 nM
COc1ccc([C@H]2C[C@@H]2COc2nc(C)ncc2-c2cc(C#N)n(C)c2)nc1 [Example 113, 4-(4-(((1S,2S)-2-(5-methoxypyridin-2-yl)cyclopropyl)methoxy)-2-methylpyrimidin-5-yl)-1-methyl-1H-pyrrole-2-carbonitrile]	0.89 nM
Cc1ccc([C@H]2C[C@@H]2COc2nc(C)ncc2-c2cccc(C(C)C)c2)nc1 [Example 4, 5-(3-isopropylphenyl)-2-methyl-4-(((1S,2S)-2-(5-methylpyridin-2-yl)cyclopropyl)methoxy)pyrimidine]	2.14 nM
Cc1ncc(-c2ccc(CO)nc2)c(OC[C@H]2C[C@@H]2c2ccc3ccccc3n2)n1 [Example 154, (5-(2-methyl-4-(((1S,2S)-2-(quinolin-2-yl)cyclopropyl)methoxy)pyrimidin-5-yl)pyridin-2-yl)methanol]	0.01 nM
Cc1ccc([C@H]2C[C@@H]2COc2nc(C)ncc2-c2ccc(C(C)O)nc2)nc1 (stereo partly drawn) [Example 148, 1-(5-(2-methyl-4-(((1S,2S)-2-(5-methylpyridin-2-yl)cyclopropyl)methoxy)pyrimidin-5-yl)pyridin-2-yl)ethanol]	0.98 nM
Cc1ncc(-c2ccc3nccn3c2)c(OC[C@H]2C[C@@H]2c2ccc3ccccc3n2)n1 [Example 136, 2-((1S,2S)-2-((5-(imidazo[1,2-a]pyridin-6-yl)-2-methylpyrimidin-4-yloxy)methyl)cyclopropyl)quinoline]	0.04 nM
CCn1cc(-c2cnc(C)nc2OC[C@H]2C[C@@H]2c2ccc(OC)cn2)nn1 [Example 247, 5-(1-ethyl-1H-1,2,3-triazol-4-yl)-4-(((1S,2S)-2-(5-methoxypyridin-2-yl)cyclopropyl)methoxy)-2-methylpyrimidine]	2.43 nM
Cc1ccc([C@H]2C[C@@H]2COc2nc(C)ncc2-c2ccc(C(O)C(F)(F)F)nc2)nc1 (stereo partly drawn) [Example 145, 2,2,2-trifluoro-1-(5-(2-methyl-4-(((1S,2S)-2-(5-methylpyridin-2-yl)cyclopropyl)methoxy)pyrimidin-5-yl)pyridin-2-yl)ethanol]	0.54 nM
Cc1ccnc([C@H]2C[C@@H]2COc2nc(C)ncc2C2CCC3(CC2)OCCO3)c1 [Example 201, 2-methyl-4-(((1S,2S)-2-(4-methylpyridin-2-yl)cyclopropyl)methoxy)-5-(1,4-dioxaspiro[4.5]decan-8-yl)pyrimidine]	17.1 nM
COc1ccc([C@H]2C[C@@H]2COc2nc(C)ncc2-c2nn[nH]n2)nc1 [Example 234, 4-(((1S,2S)-2-(5-methoxypyridin-2-yl)cyclopropyl)methoxy)-2-methyl-5-(2H-tetrazol-5-yl)pyrimidine]	9.43 nM

Continued by falling Ki, values first:

Ki	Structure (SMILES)
41.6 nM	CCOC(=O)c1cnc(O)cc1-c1cnc(C)nc1OC[C@H]1C[C@@H]1c1ccc(OC)cn1 [Example 110, ethyl 6-hydroxy-4-(4-(((1S,2S)-2-(5-methoxypyridin-2-yl)cyclopropyl)methoxy)-2-methylpyrimidin-5-yl)nicotinate]
30.8 nM	Cc1ccnc([C@H]2C[C@@H]2COc2nc(C)ncc2C2CCC(=O)CC2)c1 [Example 203, 4-(2-methyl-4-(((1S,2S)-2-(4-methylpyridin-2-yl)cyclopropyl)methoxy)pyrimidin-5-yl)cyclohexanone]
10.4 nM	C=Cc1cnc(C)nc1OC[C@H]1C[C@@H]1c1ccc(C)cn1 [Example 54, 2-methyl-4-(((1S,2S)-2-(5-methylpyridin-2-yl)cyclopropyl)methoxy)-5-vinylpyrimidine]
6.67 nM	Cc1cccc([C@H]2C[C@@H]2COc2nc(C)ncc2C2CCC3(CC2)OCCO3)n1 [Example 186, 2-methyl-4-(((1S,2S)-2-(6-methylpyridin-2-yl)cyclopropyl)methoxy)-5-(1,4-dioxaspiro[4.5]decan-8-yl)pyrimidine]
3.3 nM	COc1ccc([C@H]2C[C@@H]2COc2nc(C)ncc2-c2ccc(-c3nnn(C(F)F)n3)cc2)nc1 [Example 227, 5-(4-(2-(difluoromethyl)-2H-tetrazol-5-yl)phenyl)-4-(((1S,2S)-2-(5-methoxypyridin-2-yl)cyclopropyl)methoxy)-2-methylpyrimidine]
3.02 nM	COc1ccc([C@H]2C[C@@H]2COc2nc(C)ncc2-c2ccc(-c3nc(C)no3)cc2)nc1 [Example 253, 5-(4-(4-(((1S,2S)-2-(5-methoxypyridin-2-yl)cyclopropyl)methoxy)-2-methylpyrimidin-5-yl)phenyl)-3-methyl-1,2,4-oxadiazole]
2.96 nM	COc1cccc([C@H]2C[C@@H]2COc2nc(C)ncc2C2CCC(=O)CC2)n1 [Example 202, 4-(4-(((1S,2S)-2-(6-methoxypyridin-2-yl)cyclopropyl)methoxy)-2-methylpyrimidin-5-yl)cyclohexanone]
2.36 nM	COc1ccc([C@H]2C[C@@H]2COc2nc(C)ncc2-c2c[nH]oc2=O)nc1 [Example 242, 4-(4-(((1S,2S)-2-(5-methoxypyridin-2-yl)cyclopropyl)methoxy)-2-methylpyrimidin-5-yl)isoxazol-5(2H)-one]
2.35 nM	CNC(=O)c1ccc(-c2cnc(C)nc2OC[C@H]2C[C@@H]2c2ccc(OC)cn2)cn1 [Example 103, 5-(4-(((1S,2S)-2-(5-methoxypyridin-2-yl)cyclopropyl)methoxy)-2-methylpyrimidin-5-yl)-N-methylpicolinamide]
1.09 nM	Cc1ncc(-c2ccc(C(C)(C)O)nc2)c(OC[C@H]2C[C@@H]2c2ccccn2)n1 [Example 123, 2-(5-(2-methyl-4-(((1S,2S)-2-(pyridin-2-yl)cyclopropyl)methoxy)pyrimidin-5-yl)pyridin-2-yl)propan-2-ol]
1.04 nM	Cc1ncc(-c2ccc(C3(O)CCCC3)nc2)c(OC[C@H]2C[C@@H]2c2ccccn2)n1 [Example 120, 1-(5-(2-methyl-4-(((1S,2S)-2-(pyridin-2-yl)cyclopropyl)methoxy)pyrimidin-5-yl)pyridin-2-yl)cyclopentanol]
0.93 nM	COc1ccc([C@H]2C[C@@H]2COc2nc(C)ncc2-c2cn(C)nc2C(O)C(F)(F)F)nc1 (stereo partly drawn) [Example 114, 2,2,2-trifluoro-1-(4-(4-(((1S,2S)-2-(5-methoxypyridin-2-yl)cyclopropyl)methoxy)-2-methylpyrimidin-5-yl)-1-methyl-1H-pyrazol-3-yl)ethanol]
0.91 nM	COc1ccc([C@H]2C[C@@H]2COc2nc(C)ncc2-c2ocnc2C)nc1 [Example 257, 5-(4-(((1S,2S)-2-(5-methoxypyridin-2-yl)cyclopropyl)methoxy)-2-methylpyrimidin-5-yl)-4-methyloxazole]
0.73 nM	Cc1ncc(C2CCC3(CC2)OCCO3)c(OC[C@@H](C)Cc2ccc3ccccc3n2)n1 [Example 204, 2-((2S)-2-methyl-3-(2-methyl-5-(1,4-dioxaspiro[4.5]decan-8-yl)pyrimidin-4 yloxy)propyl)quinoline]
0.71 nM	COc1ccc([C@H]2C[C@@H]2COc2nc(C)ncc2-c2cn(C)[nH]c2=O)nc1 [Example 244, 4-(4-(((1S,2S)-2-(5-methoxypyridin-2-yl)cyclopropyl)methoxy)-2-methylpyrimidin-5-yl)-1-methyl-1,2-dihydropyrazol-3-one]
0.57 nM	COCCOc1ccc(-c2cnc(C)nc2OC[C@H]2C[C@@H]2c2ccc(C)cn2)cn1 [Example 57, 5-(6-(2-methoxyethoxy)pyridin-3-yl)-2-methyl-4-(((1S,2S)-2-(5-methylpyridin-2-yl)cyclopropyl)methoxy)pyrimidine]
0.56 nM	Cc1cccc([C@H]2C[C@@H]2COc2nc(C)ncc2-c2cn(C)nc2C(C)O)n1 (stereo partly drawn) [Example 158, 1-(1-methyl-4-(2-methyl-4-(((1S,2S)-2-(6-methylpyridin-2-yl)cyclopropyl)methoxy)pyrimidin-5-yl)-1H-pyrazol-3-yl)ethanol]
0.37 nM	Cc1ccc([C@H]2C[C@@H]2COc2nc(C)ncc2-c2cnc3[nH]ncc3c2)nc1 [Example 142, 5-(2-methyl-4-(((1S,2S)-2-(5-methylpyridin-2-yl)cyclopropyl)methoxy)pyrimidin-5-yl)-1H-pyrazolo[3,4-b]pyridine]
